Laboratory results published in patent US20210252047A1, “USE OF HALOGEN COMPOUNDS FOR THE TREATMENT AND PREVENTION OF TISSUE INJURY AND POST-INTENSIVE CARE SYNDROME” (Faraday Pharmaceuticals, Inc., priority 2018, published 2021).

How the values were obtained:
[1] = test system: mice subjected to bilateral hind limb ischemia; assay: Hind limb ischemia survival, Study B (2.5 hours ischemia, NaI in drinking water); format: in vivo, C57Bl/6 mice
Description: (§1) A bilateral hind-limb ischemia model was used to induce systemic inflammation. Male C57Bl/6 mice (7-10 weeks old) were subjected to 2 hours of bilateral hind limb ischemia followed by 3 hours of reperfusion. Ischemia was induced by application of latex o-rings above the greater trochanter using a McGivney Hemorrhoidal ligator. After 3 hours of reperfusion, the plasma was analyzed for levels of creatine kinase (CK), or other markers of organ injury: blood urea nitrogen (BUN), alanine aminotransferase (ALT), and aspartate aminotransferase (AST).
The model used to evaluate survival was similar to that previously described for Study A; however, the time of ischemia was increased to 2.5 hours. The time from reperfusion to death was monitored for the next 24 hours.
The drinking water of the mice was supplemented with 84 μM NaI and the mice were allowed ad libitium access (p.o.) to this water for >5 days prior to hind limb ischemia.

[2] = test system: mice subjected to hindlimb ischemia reperfusion injury; assay: Hindlimb ischemia reperfusion injury (2 hours ischemia, 3 hours reperfusion), Example 1; format: in vivo, C57BL/6 mice
Description: Anesthetized adult male C57BL/6 mice were subjected to hindlimb ischemia reperfusion injury (bilateral leg tourniquets for 2 hours (ischemia) followed by 3 hours of reperfusion after tourniquet removal). To determine whether exogenous iodide could reduce damage to heart and lung tissue caused by the ischemia reperfusion injury, various doses of iodide (0 mg/kg, 1 mg/kg, 10 mg/kg or 20 mg/kg) were administered intravenously (i.v.) by the retro orbital (r.o.) to the animals 5 minutes prior to reperfusion of the hind limb.
The animals were then sacrificed and blood (plasma) and lung and GC muscle samples obtained. The blood (plasma) samples were assayed to determine the concentrations of creatine kinase and cardiac troponin present in each. In addition, the amount of edema present in the lung and GC muscle was determined as wet weight/dry weight.

[3] = test system: mice subjected to bilateral hind limb ischemia; assay: Bilateral hind-limb ischemia model of systemic inflammation, Study A (2 hours ischemia, 3 hours reperfusion); format: in vivo, C57Bl/6 mice; conditions: after 3 hours of reperfusion
Description: as §1
A 1, 3, 10, or 20 mg/kg bolus of sodium iodide was administered intravenously (i.v.) by the retro orbital (r.o.) route 5 minutes prior to reperfusion of the hind limbs.

[4] = test system: mice subject to bilateral hind limb ischemia (HLI); assay: Hind limb ischemia (HLI) cytokine levels in muscle and plasma, Example 3; format: in vivo, C56Bl/6 mice; conditions: 24 hours after reperfusion
Description: A mouse model of hind limb ischemia was utilized to induce intramuscular and systemic inflammation. Male C56Bl/6 mice˜7-10 weeks old were subject to bilateral hind limb ischemia (HLI) by placing an O-ring on both hind limbs for 2.5 hours. Five minutes prior to reperfusion an intravenous bolus of sodium iodide (NaI; FDY-5301) at a concentration of 1 mg/kg was delivered. Vehicle treated animals received an i.v. bolus of saline. After i.v. delivery, at the 2.5 hour mark, the O-rings were cut off and removed to allow for tissue reperfusion. The mice were sacrificed 24 hours following reperfusion. Upon sacrifice, whole blood was removed (plasma was then separated and frozen at −80° C.), the gastronemius muscle was removed and snap frozen in liquid nitrogen and then stored at −80° C. The cytokines were evaluated on a MAGPIX® instrument (Luminex Corp) using a custom multiplex assay kit from MilliporeSigma (MCYTOMAG-70K-09, containing: INF-γ, IL-18, IL-2, IL-6, IL-10, KC, LIX, MIP-2 & TNF-α.

[5] = test system: mice subjected to bilateral hind limb ischemia; assay: Hind limb ischemia survival, Study C (3 hours ischemia, i.v. bolus); format: in vivo, C57Bl/6 mice
Description: as §1
The model used to evaluate survival was similar to that previously described for Study A; however, the time of ischemia was increased to 3 hours. The time from reperfusion to death was monitored for the next 2 months.
A 1 mg/kg bolus of sodium iodide was administered intravenously (i.v.) by the retro orbital (r.o.) route 5 minutes prior to reperfusion of the hind limbs.

[6] = i.v. administration 5 minutes prior to reperfusion, FIG. 2
[7] = 1 mg/kg i.v. bolus 5 minutes prior to reperfusion, 2.5 h ischemia, p<0.05, FIG. 7

Structure (SMILES): [I-].[Na+] [sodium iodide]
- animals alive at 24 hours ([1]; 84 μM in drinking water (p.o.) >5 days prior to ischemia, vehicle 50%): 90%
- survival compared to vehicle ([1]; 84 μM in drinking water ad libitum (p.o.) >5 days prior to ischemia, monitored 24 hours, FIG. 5): significantly increased
- plasma CK (creatine kinase) levels compared to vehicle ([2]; 1 mg/kg, 10 mg/kg or 20 mg/kg i.v. (retro orbital) 5 minutes prior to reperfusion, 2 h ischemia, 3 h reperfusion, FIG. 1A): significantly reduced
- level of cardiac troponin ([2]; 10 mg/kg i.v. 5 minutes prior to reperfusion, plasma, 2 h ischemia, 3 h reperfusion, FIG. 1B): significantly reduced
- muscle edema (gastrocnemius), wet weight/dry weight [2, 6]: reduced
- pulmonary edema (lung), wet weight/dry weight [2, 6]: reduced
- plasma CK levels compared to vehicle ([3]; 1 mg/kg i.v. bolus 5 minutes prior to reperfusion, FIG. 3): significantly reduced
- plasma level of blood urea nitrogen (BUN) ([3]; 1, 3, 10 or 20 mg/kg i.v. bolus 5 minutes prior to reperfusion, FIG. 4A): reduced
- plasma level of alanine aminotransferase (ALT) ([3]; 1, 3, 10 or 20 mg/kg i.v. bolus 5 minutes prior to reperfusion, FIG. 4B): reduced
- plasma level of aspartate aminotransferase (AST) ([3]; 1, 3, 10 or 20 mg/kg i.v. bolus 5 minutes prior to reperfusion, FIG. 4C): reduced
- plasma IL-6 ([4]; 1 mg/kg i.v. bolus 5 minutes prior to reperfusion, 2.5 h ischemia, FIG. 8): significant reduction
- IL-6 in muscle tissue [4, 7]: significant reduction
- IL-10 in muscle tissue [4, 7]: significant reduction
- KC in muscle tissue [4, 7]: significant reduction
- MIP-2 in muscle tissue [4, 7]: significant reduction
- inflammation, heat map of all cytokines assessed in muscle or plasma ([4]; 1 mg/kg i.v. bolus, FIGS. 9 and 10): overall reduction
- cytokine levels in plasma ([4]; FIG. 8): significantly reduced
- cytokine levels in muscle tissue (IL-6, IL-10, CXCL1 or KC, MIP-2) ([4]; FIGS. 7A-7D): significantly reduced
- survival compared to vehicle administration ([5]; 1 mg/kg i.v. bolus 5 minutes prior to reperfusion): increased
- animals alive after 72 hours ([5]; 1 mg/kg i.v. bolus 5 minutes prior to reperfusion, vehicle 0%, FIG. 6A): 20%
- further survival of the animals alive after 72 hours (study ended at this point) ([5]; 1 mg/kg i.v. bolus, FIG. 6B): ≥ 2 months
